From patent publication US9499553B2 (CHUGAI SEIYAKU KABUSHIKI KAISHA, priority 2013, dated 2016)
pIC50: −log10 of the molar value.

molecular target: T1, human NaPi-IIb (Homo sapiens, UniProt O95436); assay: Inhibitory effect on 33PO4 uptake into human NaPi-IIb-expressing CHO cells; type: cell-based; details: read-out: IC50
T1 construct: expressed in transfected cells
T1 sequence (O95436 1-690): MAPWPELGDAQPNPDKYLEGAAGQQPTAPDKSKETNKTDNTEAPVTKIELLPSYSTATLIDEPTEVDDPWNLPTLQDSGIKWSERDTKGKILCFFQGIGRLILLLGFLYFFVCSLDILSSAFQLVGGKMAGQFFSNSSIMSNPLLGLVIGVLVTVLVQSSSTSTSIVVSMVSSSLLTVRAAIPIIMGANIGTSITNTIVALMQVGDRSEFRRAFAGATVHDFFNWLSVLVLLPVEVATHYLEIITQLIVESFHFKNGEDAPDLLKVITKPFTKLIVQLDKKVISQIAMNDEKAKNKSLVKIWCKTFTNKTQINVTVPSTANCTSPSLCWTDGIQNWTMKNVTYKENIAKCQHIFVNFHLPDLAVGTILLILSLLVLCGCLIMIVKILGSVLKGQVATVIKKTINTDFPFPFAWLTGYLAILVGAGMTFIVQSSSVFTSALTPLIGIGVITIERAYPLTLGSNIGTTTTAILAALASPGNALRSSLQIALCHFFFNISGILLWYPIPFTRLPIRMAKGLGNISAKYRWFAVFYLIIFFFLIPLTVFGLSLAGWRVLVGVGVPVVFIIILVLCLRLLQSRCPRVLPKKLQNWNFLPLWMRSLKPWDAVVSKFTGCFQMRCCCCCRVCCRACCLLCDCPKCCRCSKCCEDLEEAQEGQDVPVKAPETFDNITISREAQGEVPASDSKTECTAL
Summary of the method: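 Uptake of ³³PO4 was measured by scintillation counting after ice-cold buffer A washes. Cells were CHO stably expressing human NaPi-IIb, seeded overnight, and exposed to ³³PO4 in buffer A at room temperature.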

SMILES	pIC50
Cc1nc(NC(=O)C2=C(O)C3(CCC3)N(C)N(Cc3cccc(F)c3F)C2=O)ccc1Br [Example 259]	5.00
CN1N(Cc2cccc(F)c2F)C(=O)C(C(=O)Nc2ccc(C(F)(F)F)cc2-c2ccc(S(=O)(=O)N(C)C)cc2)=C(O)C1(C)C [Example 308]	4.90
CCOC(=O)CCCCCCN1C(=O)C(C(=O)Nc2ccc(C(F)(F)F)cc2-c2ccc(C(F)(F)F)nc2)=C(O)[C@@]2(C)CCCN12 [Example 235, Ethyl 7-[(4aR)-4-hydroxy-4a-methyl-2-oxo-3-[[4-(trifluoromethyl)-2-[6-(trifluoromethyl)pyridin-3-yl]phenyl]carbamoyl]-6,7-dihydro-5H-pyrrolo[1,2-b]pyridazin-1-yl]heptanoate]	5.32
COc1cccc(-c2cc(C(F)(F)F)ccc2NC(=O)C2=C(O)[C@@]3(C)CCCN3N(Cc3ccc(C#CCOCCOCCO)c(F)c3F)C2=O)c1OC [Example 139]	4.77
C[C@]12CCCN1N(Cc1cccc(F)c1F)C(=O)C(C(=O)Nc1ccc(C(F)(F)F)cc1-c1ccc(C(F)(F)F)nc1Br)=C2O [Example 85]	5.21
CN1[C@@H](C(C)(C)C)C(O)=C(C(=O)Nc2cccc(C(F)(F)F)n2)C(=O)N1Cc1cccc(F)c1F [Example 244]	5.14
C[C@]12CCCN1N(Cc1cccc(Cl)c1)C(=O)C(C(=O)Nc1ccc(C(F)(F)F)cc1-c1ccc(C(F)(F)F)nc1)=C2O [Example 169]	5.59
C[C@]12CCCN1N(Cc1cccc(C#N)c1)C(=O)C(C(=O)Nc1ccc(C(F)(F)F)cc1-c1cc(C(F)(F)F)ncn1)=C2O [Example 179]	4.72
C[C@]12CCCN1N(Cc1ccc(OCCN3CCOCC3)c(F)c1F)C(=O)C(C(=O)Nc1ccc(Cl)cc1-c1ccc(C(F)(F)F)nc1)=C2O [Example 102]	4.96
CN1N(Cc2cccc(F)c2F)C(=O)C(C(=O)Nc2cc(F)c(Br)c(F)c2)=C(O)C12CCC2 [Example 257]	5.22
CC(C)(C)[C@H]1C(O)=C(C(=O)Nc2ccc(Cl)cc2-c2ccc(C(F)(F)F)nc2)C(=O)N(Cc2cccc(F)c2F)N1CC(F)(F)F [Example 247]	5.09
C[C@]12CCCN1N(Cc1cccc(F)c1F)C(=O)C(C(=O)Nc1ccc(Cl)cc1F)=C2O [Example 76]	5.18
C[C@]12CCCN1N(Cc1cc(F)c(F)c(F)c1)C(=O)C(C(=O)Nc1cc(F)c(Br)c(F)c1)=C2O [Example 197]	5.15
C[C@]12CCCN1N(Cc1cccc(F)c1F)C(=O)C(C(=O)Nc1ccc(Cl)cc1-c1ccc(C(F)(F)F)nc1)=C2O [Example 86]	5.28
CN1N(Cc2cccc(F)c2F)C(=O)C(C(=O)Nc2ccc(C(F)(F)F)nc2-c2cncc(C(F)(F)F)c2)=C(O)C1(C)C [Example 306]	5.08
CC1(C)CC[C@]2(C)C(O)=C(C(=O)Nc3cc(C(F)(F)F)ccc3-c3ccc(C(F)(F)F)nc3)C(=O)N(Cc3cccc(F)c3F)N12 [Example 63]	5.06
CCCCCN1C(=O)C(C(=O)Nc2ccc(C(F)(F)F)cc2-c2ccc(C(F)(F)F)nc2)=C(O)[C@@]2(C)CCCN12 [Example 26]	5.66
C[C@]12CCCN1N(Cc1ccc(OCCN3CCOCC3)c(Cl)c1)C(=O)C(C(=O)Nc1ccc(C(F)(F)F)cc1-c1ccc(C(F)(F)F)nc1)=C2O [Example 149, (4aR)-1-[[3-Chloro-4-(2-morpholin-4-ylethoxy)phenyl]methyl]-4-hydroxy-4a-methyl-2-oxo-N-[4-(trifluoromethyl)-2-[6-(trifluoromethyl)pyridin-3-yl]phenyl]-6,7-dihydro-5H-pyrrolo[1,2-b]pyridazine-3-carboxamide]	4.71
C[C@]12CCCN1N(Cc1ccc(C#CCOCCCCO)c(F)c1F)C(=O)C(C(=O)Nc1ccc(C(F)(F)F)cc1-c1ccc(C(F)(F)F)nc1)=C2O [Example 128]	4.92
CN1N(Cc2cccc(F)c2F)C(=O)C(C(=O)Nc2ccc(C(F)(F)F)cc2-c2ncnc(C#N)c2Cl)=C(O)C1(C)C [Example 312]	5.20
CN1N(Cc2cccc(F)c2F)C(=O)C(C(=O)Nc2ccc(C(F)(F)F)cc2-c2cncc(C(F)(F)F)c2)=C(O)C1(C)C [Example 305]	5.23

Continued, values first:

pIC50	SMILES
5.77	C[C@]12CCCN1N(Cc1c(F)cccc1Cl)C(=O)C(C(=O)Nc1ccc(C(F)(F)F)cc1-c1cc(C(F)(F)F)ncn1)=C2O [Example 210]
4.60	CN(CCO)CCOc1ccc(CN2C(=O)C(C(=O)Nc3ccc(C(F)(F)F)cc3-c3cc(C(F)(F)F)ncn3)=C(O)C3(CCC3)N2C)c(F)c1F [Example 347]
5.26	C[C@]12CCCN1N(Cc1cccc(OC(F)(F)F)c1)C(=O)C(C(=O)Nc1ccc(C(F)(F)F)cc1-c1cc(C(F)(F)F)ncn1)=C2O [Example 189]
4.74	CN1N(Cc2ccc(OCCN3CCOCC3)c(F)c2F)C(=O)C(C(=O)Nc2ccc(Cl)cc2-c2cc(C(F)(F)F)ncn2)=C(O)C12CCCCC2 [Example 297]
4.95	CN1N(Cc2ccc(OCCN3CCOCC3)c(F)c2F)C(=O)C(C(=O)Nc2ccc(C(F)(F)F)cc2-c2ccc(C(F)(F)F)nc2)=C(O)C12CCC2 [Example 282]
4.62	CN1N(Cc2ccc(OCCCC(=O)O)c(F)c2F)C(=O)C(C(=O)Nc2ccc(C(F)(F)F)cc2-c2cc(C(F)(F)F)ncn2)=C(O)C12CCCC2 [Example 332, 4-[2,3-Difluoro-4-[[10-hydroxy-6-methyl-8-oxo-9-[[4-(trifluoromethyl)-2-[6-(trifluoromethyl)pyrimidin-4-yl]phenyl]carbamoyl]-6,7-diazaspiro[4.5]dec-9-en-7-yl]methyl]phenoxy]butanoate]

same assay, conditions: read-out: IC50 against 33PO4 uptake into human NaPi-IIb-expressing cells

pIC50	SMILES
4.72	CN(CCOc1ccc(CN2C(=O)C(C(=O)Nc3ccc(C(F)(F)F)cc3-c3cc(C(F)(F)F)ncn3)=C(O)C3(CCCC3)N2C)c(F)c1F)C1COC1 [Example 412, 7-(2,3-Difluoro-4-(2-(methyl(oxetan-3-yl)amino)ethoxy)benzyl)-10-hydroxy-6-methyl-8-oxo-N-(4-(trifluoromethyl)-2-(6-(trifluoromethyl)pyrimidin-4-yl)phenyl)-6,7-diazaspiro[4.5]dec-9-ene-9-carboxamide]
4.56	CN1N(Cc2ccc(OCCN3CCN(S(C)(=O)=O)CC3)c(F)c2F)C(=O)C(C(=O)Nc2ccc(C(F)(F)F)cc2-c2cc(C(F)(F)F)ncn2)=C(O)C12CCCC2 [Example 379]
4.56	COCCN1CC[C@@H](Oc2ccc(CN3C(=O)C(C(=O)Nc4ccc(C(F)(F)F)cc4-c4cc(C(F)(F)F)ncn4)=C(O)C4(CCC4)N3C)c(F)c2F)C1 [Example 405, 6-[[2,3-Difluoro-4-[(3R)-1-(2-methoxyethyl)pyrrolidin-3-yl]oxyphenyl]methyl]-9-hydroxy-5-methyl-7-oxo-N-[4-(trifluoromethyl)-2-[6-(trifluoromethyl)pyrimidin-4-yl]phenyl]-5,6-diazaspiro[3.5]non-8-ene-8-carboxamide]
5.66	COCCN(C)CCNc1ccc(CN2C(=O)C(C(=O)Nc3ccc(C(F)(F)F)cc3-c3cc(C(F)(F)F)ncn3)=C(O)C3(CCCC3)N2C)c(F)c1F [Example 417, 7-(2,3-Difluoro-4-((2-((2-methoxyethyl)(methyl)amino)ethyl)amino)benzyl)-10-hydroxy-6-methyl-8-oxo-N-(4-(trifluoromethyl)-2-(6-(trifluoromethyl)pyrimidin-4-yl)phenyl)-6,7-diazaspiro[4.5]dec-9-ene-9-carboxamide]
4.71	CN(CCOCCOCCOCCOCCOc1ccc(CN2C(=O)C(C(=O)Nc3ccc(C(F)(F)F)cc3-c3cc(C(F)(F)F)ncn3)=C(O)C3(CCCC3)N2C)c(F)c1F)C[C@@H](O)[C@H](O)[C@@H](O)[C@@H](O)CO [Example 421, 7-[[2,3-Difluoro-4-[2-[2-[2-[2-[2-[methyl-[(2R,3 S,4S,5 S)-2,3,4,5,6-pentahydroxyhexyl]amino]ethoxy]ethoxy]ethoxy]ethoxy]ethoxy]phenyl]methyl]-10-hydroxy-6-methyl-8-oxo-N-[4-(trifluoromethyl)-2-[6-(trifluoromethyl)pyrimidin-4-yl]phenyl]-6,7-diazaspiro[4.5]dec-9-ene-9-carboxamide]
4.66	CN1N(Cc2ccc(OCCN[C@@H](CC(=O)O)C(=O)O)c(F)c2F)C(=O)C(C(=O)Nc2ccc(C(F)(F)F)cc2-c2cc(C(F)(F)F)ncn2)=C(O)C12CCCC2 [Example 381, (2S)-2-[2-[2,3-Difluoro-4-[[10-hydroxy-6-methyl-8-oxo-9-[[4-(trifluoromethyl)-2-[6-(trifluoromethyl)pyrimidin-4-yl]phenyl]carbamoyl]-6,7-diazaspiro[4.5]dec-9-en-7-yl]methyl]phenoxy]ethylamino]butanedioate]
5.07	CN1N(Cc2ccc(OCCCCCOCCO)c(F)c2F)C(=O)C(C(=O)Nc2ccc(C(F)(F)F)cc2-c2cc(C(F)(F)F)ncn2)=C(O)C12CCCC2 [Example 397]

SMILES	pIC50
CN1N(Cc2ccc(OCCN3C4CCC3COC4)c(F)c2F)C(=O)C(C(=O)Nc2ccc(C(F)(F)F)cc2-c2cc(C(F)(F)F)ncn2)=C(O)C12CCCC2 [Example 367]	4.85
